Experiments:
Assay type in all cases: cell-based
[1] = tested on: MT-1 cells; assay: Proliferation of MT-1 cells (Cell Countdown Kit-8, formazan absorbance); conditions: 4 days, FIG. 3
Description: MT-1 cells (ATL-derived cell lines) were purchased from JCRB Cell Bank. MT-1 cells were seeded on a 24-well plate at 0.4×10^5 cells/0.9 mL/well and cultured for 3 hours in an RPMI1640 culture solution comprising 10% fetal bovine serum (FBS) and 1% penicillin-streptomycin in an environment of 37° C. and 5% CO2. Then, OR21, a DNA methyl transferase inhibitor and/or EPZ-6438 or DS-3201b, histone methyl transferase inhibitors were dissolved in the same culture solution, and 0.1 mL thereof was added to each well, and cultured for 4 days while exchanging with a fresh culture solution comprising each inhibitor every two days. The final concentrations of the inhibitors in the culture solution were 0.5 μM for OR21, 2.5 μM for EPZ-6438, and 0.1 μM, 0.5 μM, and 2.5 μM for DS-3201b. In addition, groups of single and combined additions of each inhibitor were provided. The effect of each inhibitor on cell proliferation was measured using Cell Countdown Kit-8 (Dojindo Laboratories). The water-soluble formazan in each well produced from reduction of tetrazolium salt […] was measured at two wavelength (450 nm/620 nm) using a plate reader (Varioskan Flash, Thermo-Fisher Scientific). The results are expressed as relative values with the absorbance of the wells in which no inhibitor was added as 100%.

[2] = tested on: DUSP5 protein; assay: Expression amount of DUSP5 protein in MT-1 cells by Western blotting; conditions: 4 days culture, FIG. 2B
Description: (§1) MT-1 cells (ATL-derived cell lines) were purchased from JCRB Cell Bank and cultured in an RPMI1640 culture solution comprising 10% fetal bovine serum (FBS) and 1% penicillin-streptomycin in an environment of 37° C. and 5% CO2. The culture was started by additions of OR21, a DNA methyl transferase inhibitor and/or EPZ-6438, a histone methyl transferase inhibitor to a culture solution of MT-1 cells, exchanged with a fresh culture solution comprising the inhibitors after 2 days, and further cultured for 2 days. After culturing, the cells were collected and dissolved, and the expression amount of DUSP5 protein was measured by Western blotting.

[3] = tested on: DUSP5 mRNA; assay: Expression amount of DUSP5 mRNA in MT-1 cells by RT-PCR; conditions: 4 days culture, FIG. 2A
Description: as §1, with “total RNA was extracted,” for “dissolved,”, “mRNA” for “protein”, “RT-PCR using SYBR @ Green (Takara Bio).” for “Western blotting.”

Question: For `Cc1cc(C)c(CNC(=O)c2cc(Cl)c3c(c2C)O[C@@](C)([C@H]2CC[C@H](N(C)C)CC2)O3)c(=O)[nH]1.Cc1ccc(S(=O)(=O)O)cc1` [DS-3201b, 4-methylbenzene-1-sulfonic acid (2R)-7-chloro-2-[(trans)-4-(dimethylamino)cyclohexyl]-N-[(4,6-dimethyl-2-oxo-1,2-dihydropyridin-3-yl)methyl]-2,4-dimethyl-2H-1,3-benzodioxole-5-carboxamide], which “proliferation of MT-1 cells” value ([1]; DS-3201b 0.1 μM to 2.5 μM) is on record?
Answer: hardly affected

Question: `CCN(c1cc(-c2ccc(CN3CCOCC3)cc2)cc(C(=O)NCc2c(C)cc(C)[nH]c2=O)c1C)C1CCOCC1` [EPZ-6438, N-[(4,6-dimethyl-2-oxo-1,2-dihydropyridin-3-yl)methyl]-5-[ethyl(tetrahydro-2H-pyran-4-yl)amino]-4-methyl-4′-(morpholin-4-ylmethyl) biphenyl-3-carboxamide] was tested. Which “expression amount of DUSP5 protein” value ([2]; EPZ-6438 2.5 μM) did it give?
Answer: almost no effect

Question: What about the “DUSP5 mRNA expression” value ([3]; EPZ-6438 at 0.5 μM and 2.5 μM) of the same compound?
Answer: almost no effect

Question: And the “proliferation of MT-1 cells” value ([1]; EPZ-6438 2.5 μM)?
Answer: hardly affected

Question: For `CC[Si](CC)(CC)OC[C@H]1O[C@@H](n2cnc(N)nc2=O)C[C@@H]1O` [OR21, 5′-O-triethylsilyl-2′-deoxy-5-azacytidine], which “expression amount of DUSP5 protein” value ([2]; OR21 0.5 μM) is on record?
Answer: apparent increase

Question: And the “DUSP5 mRNA expression” value ([3]; OR21 at 0.1 μM and 0.5 μM)?
Answer: enhanced DUSP5 mRNA expression in a concentration-dependent manner

Question: What about the “proliferation of MT-1 cells” value ([1]; OR21 0.5 μM) of the same compound?
Answer: exhibited an effect of inhibiting proliferation

From patent US20230193350A1, “METHOD FOR DIAGNOSING AND TREATING BLOOD CANCER” (Ohara Pharmaceutical Co., Ltd., priority 2020, published 2023)
